According to publication PMC10011573, “Development of novel broad-spectrum antimicrobial lipopeptides derived from plantaricin NC8 β” (Scientific Reports, 2023):
Non-standard residues stand in square brackets, D forms with d. Residues, ends and D or L forms follow the SMILES beside them. *: point of attachment. Hexanoyl = CCCCCC(=O)*; Pentanoyl = CCCCC(=O)*

Key:
[1] = Carboxyfluorescein release assay, mammalian liposome model; format: biochemical; conditions: 65:5:30 POPC:POPS:Chol. liposomes, 25 µM lipid, 10 mM PBS pH 7.4, 10^–5–10^2 µM peptide, 60 min, fluorescence, Hill fit, n = 3; read-out: EC50 Mammalial (concentration that triggers 50% CF release)
Description: (§1) Liposomes were prepared by thin-film hydration method. Lipids stock solutions (10 mg/ml in chloroform, Avanti Polar Lipids, Inc., Alabaster, United States) of the lipids 1-palmitoyl-2-oleoyl-sn-glycero-3-phosphocholine (POPC), 1-palmitoyl-2-oleoyl-sn-glycero-3-phospho-L-serine (POPS), 1-Hexadecanoyl-2-(9Z-Octadecenoyl)-sn-Glycero-3-Phosphoglycerol (POPG) and Cholesterol (Chol) were employed. Bacterial liposomes were prepared with a 75:25 ratio of POPC:POPG and mammalian liposomes were prepared with a 65:5:30 ratio of POPC:POPS:Chol. Lipid solutions were thoroughly homogenised, and the solvent was evaporated with the use of a dry N2 steam to yield a lipid cake. […] The lipid film was subsequently hydrated with a 5(6)-CF solution (50 mM CF, 10 mM PBS, 90 mM NaCl, pH 7.4). Following a 10 min incubation on orbital shaker (50 min^−1), the solution was vortexed for 60 s on medium speed. A mini extruder (Avanti Polar Lipids, Inc., United States) was employed and 21 extrusions were performed through a 0.1 µm filter membrane (Nuclepore track-etched hydrophilic membrane, Cytiva, Whatman, MA, United States), resulting in monodispersed unilamellar liposomes. Directly before use the liposomes were purified from unencapsulated CF by filtration through a gel filtration column (PD Minitrap G-25 column, Cytiva, United States), against PBS buffer (10 mM, pH 7.4).
(§2) Peptide and lipopeptide activity towards liposome models were evaluated using a carboxyfluorescein (CF) release assay. Liposomes were diluted in PBS (10 mM, pH 7.4) to a final lipid concentration of 25 µM and incubated with peptides (10^–5–10^2 µM) in a 96-well plate (n = 3). CF release was monitored using an Infinite M1000 PRO plate reader every 2.5 min for 1 h. Full (100%) CF release was obtained by addition of 1% Triton X-100 solution followed by 10 min incubation. CF release percentage was evaluated according to the formula 100 * (F − F0)/(FT − F0), where F indicates the instantaneous fluorescence, FT the total fluorescence and F0 the background fluorescence prior to peptide addition. Data were fitted to a Hill-1 curve using MATLAB R2019a (The MathWorks Inc., Natick, Massachusetts, United States) and the half maximum effective concentration (EC50) was extracted.

[2] = Carboxyfluorescein release assay, bacterial liposome model; format: biochemical; conditions: 75:25 POPC:POPG liposomes, 25 µM lipid, 10 mM PBS pH 7.4, 10^–5–10^2 µM peptide, 60 min, fluorescence, Hill fit, n = 3; read-out: EC50 Bacterial (concentration that triggers 50% CF release)
Description: as §1, §2

P. aeruginosa = conditions: 20 h
Description: (§3) S. aureus (ATCC 29213, MSSA, ATCC, Manassas, VA), E. coli (K-12 MG1655) and clinical isolates of S. aureus, E. coli, E. faecium, K. pneumoniae, A. baumannii, P. aeruginosa and E. cloacae obtained from the Department of Laboratory Medicine at Örebro University Hospital were streaked on Luria–Bertani (LB) agar plates and incubated at 37 °C overnight. Single colonies were inoculated into 5 ml of LB broth and incubated on a shaker (400 rpm) at 37 °C overnight. The bacterial concentrations were determined by viable count and were adjusted to correlate with approximately 10^9 CFU/ml.
(§4) The broth microdilution method was used to determine minimal inhibitory concentration (MIC) and minimal bactericidal concentration (MBC), in accordance with the EUCAST standards for the broth microdilution method. Two-fold serial dilutions of the lipopeptides were used, and the final concentrations ranged from 0.19 to 100 µM. In brief, two-fold serial dilutions of the lipopeptides were performed in a 96-well plate in PBS, with a final volume of 100 µl per well, after which 100 µl of LB-broth media containing approximately 5 × 10^5 CFU/ml of bacteria was added to each well. The plate was then incubated for 20 h in 37 °C on a shaker (400 rpm). The effect of lipopeptide-antibiotic combinations was investigated by performing checkerboard assays. The assays were performed in accordance with the MIC and MBC tests conducted above, but with horizontal and longitudinal two-fold serial dilutions of the tested compounds. […] The fractional inhibitory concentration (FIC) and fractional bactericidal concentration (FBC) were calculated by the equation (MIC or MBC of peptide in combination/MIC or MBC of peptide alone) + (MIC or MBC of antibiotic in combination/MIC or MBC of antibiotic alone). Synergy was defined as FIC/FBC ≤ 0.5, additive when 0.5 < FIC/FBC ≤ 1, indifferent when 1 < FIC/FBC < 2 and antagonistic when FIC/FBC ≥ 2. All experiments were repeated at least three times.

[3] = test system: S. aureus (ATCC 29213, MSSA); conditions: ATCC 29213, 20 h
Description: as §3, §4

E. coli (K-12 MG1655) [4] = conditions: Table 3; K-12 MG1655; broth microdilution, 50:50 PBS/LB-broth, 200 µL, 20 h, 37 °C
Description: as §3, §4

E. cloacae = conditions: 20 h
Description: as §3, §4

A. baumannii = conditions: 20 h
Description: as §3, §4

E. faecium = conditions: 20 h
Description: as §3, §4

K. pneumoniae = conditions: 20 h
Description: as §3, §4

human erythrocytes = test: Hemolytic activity; format: cell-based; conditions: 15% suspension in PBS, 1 h, 37 °C, absorbance 540 nm, highest tested concentration 100 µM
Description: The hemolytic activity of the lipopeptides was investigated by collecting blood from healthy volunteers in heparinized vacutainers. Briefly, the blood was centrifuged at 600 × g for 5 min and the erythrocyte pellet was washed three times in PBS. The cells were then suspended in PBS and added to 96-well plates (15% erythrocyte suspension/well), containing the lipopeptides with two-fold serial dilution. The plates were incubated for 1 h at 37 °C followed by centrifugation for 5 min at 900×g and absorbance measurement of the supernatants at 540 nm. Hemolytic activity (%) was calculated by subtracting the negative control from all values and normalization against the positive control (0.5% Triton X-100), that was set to 100%. All experiments, each in duplicate, were repeated three times.

E. coli (K-12 MG1655) [5] = format: cell-based; conditions: for E. coli MBC, antibiotic alone / E. coli MIC, antibiotic alone: Table 6, K-12 MG1655, checkerboard assay, 50:50 PBS/LB-broth, 200 µL
S. aureus (ATCC 29213) = format: cell-based; conditions: for S. aureus MBC, antibiotic alone / S. aureus MIC, antibiotic alone: Table 6, ATCC 29213, checkerboard assay, 50:50 PBS/LB-broth, 200 µL
Description: as §4, with “Two-fold serial dilutions of the lipopeptides were used, and the final concentrations ranged from 0.19 to 100 µM.” left out, “Synergy was defined as FIC/FBC ≤ 0.5, additive when 0.5 < FIC/FBC ≤ 1, indifferent when 1 < FIC/FBC < 2 and antagonistic when FIC/FBC ≥ 2.” left out

Structure (SMILES)	EC50 [1] [nM]	EC50 [2] [nM]	S. aureus MBC [3] [µM]	S. aureus MIC [3] [µM]	E. coli MBC (E. coli (K-12 MG1655) [4]) [µM]	E. coli MIC (E. coli (K-12 MG1655) [4]) [µM]	HC, hemolytic concentration at 5% hemolytic activity (human erythrocytes) [µM]	E. coli MBC, antibiotic alone (E. coli (K-12 MG1655) [5]) [µg/mL]	E. coli MIC, antibiotic alone (E. coli (K-12 MG1655) [5]) [µg/mL]	also measured
CCCCC(=O)N[C@@H](CC(C)C)C(=O)NCC(=O)N[C@@H](CC(C)C)C(=O)N[C@@H](CCCCN)C(=O)N[C@@H](CC(C)C)C(=O)N[C@@H](CC(C)C)C(=O)N[C@@H](Cc1c[nH]c2ccccc12)C(=O)N[C@@H](CO)C(=O)N[C@@H](C)C(=O)N[C@@H](Cc1ccc(O)cc1)C(=O)N[C@@H](CCCCN)C(=O)N[C@@H](Cc1c[nH]cn1)C(=O)N[C@@H](CCCNC(=N)N)C(=O)N[C@@H](CCCCN)C(=O)N[C@H](C(=O)N[C@@H](CC(C)C)C(N)=O)[C@@H](C)O [L-6-C5-Leu] (Pentanoyl-LGLKLLWSAYKHRKTL-NH2)	3990	110	3.1	3.1	6.2	6.2	> 100			MBC (P. aeruginosa): 50 µM; MIC (P. aeruginosa): 25 µM; MBC (E. cloacae): > 100 µM; MIC (E. cloacae): > 100 µM; MBC (A. baumannii): 3.1 µM; MIC (A. baumannii): 3.1 µM; MBC (E. faecium): 6.3 µM; MIC (E. faecium): 3.1 µM; MBC (K. pneumoniae): 50 µM; MIC (K. pneumoniae): 25 µM
CO/N=C(\C(=O)N[C@@H]1C(=O)N2C(C(=O)O)=C(COC(C)=O)CS[C@H]12)c1csc(N)n1 [Cefotaxim]								0.5	0.5	
CCCCC(=O)N[C@H](CC(C)C)C(=O)NCC(=O)N[C@H](CC(C)C)C(=O)N[C@H](CCCCN)C(=O)N[C@H](CC(C)C)C(=O)N[C@H](CC(C)C)C(=O)N[C@H](Cc1c[nH]c2ccccc12)C(=O)N[C@H](CO)C(=O)N[C@H](C)C(=O)N[C@H](Cc1ccc(O)cc1)C(=O)N[C@H](CCCCN)C(=O)N[C@H](Cc1c[nH]cn1)C(=O)N[C@H](CCCNC(=N)N)C(=O)N[C@H](CCCCN)C(=O)N[C@@H](C(=O)N[C@H](CC(C)C)C(N)=O)[C@H](C)O [D-6-C5-Leu] (Pentanoyl-[dL]G[dL][dK][dL][dL][dW][dS][dA][dY][dK][dH][dR][dK][dT][dL]-NH2)	4080	130	3.1	3.1	3.1	3.1	> 100			E. coli MBC, lipopeptide alone (E. coli (K-12 MG1655) [5]; K-12, 20 h): 3.1 µM; E. coli MIC, lipopeptide alone (E. coli (K-12 MG1655) [5]; K-12, 20 h): 3.1 µM; MBC (P. aeruginosa): 25 µM; MIC (P. aeruginosa): 12.5 µM; MBC (E. cloacae): 50 µM; MIC (E. cloacae): 25 µM; MBC (A. baumannii): 3.1 µM; MIC (A. baumannii): 3.1 µM; MBC (E. faecium): 3.1 µM; MIC (E. faecium): 3.1 µM; MBC (K. pneumoniae): 25 µM; MIC (K. pneumoniae): 12.5 µM; S. aureus MBC, lipopeptide alone (S. aureus (ATCC 29213); ATCC 29213, 20 h): 3.1 µM; S. aureus MIC, lipopeptide alone (S. aureus (ATCC 29213); ATCC 29213, 20 h): 3.1 µM
CNC(C)C1CCC(N)C(OC2C(N)CC(N)C(OC3OCC(C)(O)C(NC)C3O)C2O)O1 (centres unmarked) [Gentamicin]								1	1	
O=C(O)c1cn(C2CC2)c2cc(N3CCNCC3)c(F)cc2c1=O [Ciprofloxacin]								0.125	0.125	S. aureus MBC, antibiotic alone (S. aureus (ATCC 29213)): 0.25 µg/mL; S. aureus MIC, antibiotic alone (S. aureus (ATCC 29213)): 0.25 µg/mL
CO[C@H]1/C=C/O[C@@]2(C)Oc3c(C)c(O)c4c(O)c(c(/C=N/N5CCN(C)CC5)c(O)c4c3C2=O)NC(=O)/C(C)=C\C=C\[C@H](C)[C@H](O)[C@@H](C)[C@@H](O)[C@@H](C)[C@H](OC(C)=O)[C@@H]1C [Rifampicin]								100		S. aureus MBC, antibiotic alone (S. aureus (ATCC 29213)): 0.062 µg/mL; S. aureus MIC, antibiotic alone (S. aureus (ATCC 29213)): 0.062 µg/mL
CCCCCC(=O)N[C@@H](CC(C)C)C(=O)NCC(=O)N[C@@H](CC(C)C)C(=O)N[C@@H](CCCCN)C(=O)N[C@@H](CC(C)C)C(=O)N[C@@H](CC(C)C)C(=O)N[C@@H](Cc1c[nH]c2ccccc12)C(=O)N[C@@H](CO)C(=O)N[C@@H](C)C(=O)N[C@@H](Cc1ccc(O)cc1)C(=O)N[C@@H](CCCCN)C(=O)N[C@@H](Cc1c[nH]cn1)C(=O)N[C@@H](CCCNC(=N)N)C(=O)N[C@@H](CCCCN)C(=O)N[C@H](C(=O)N[C@@H](CC(C)C)C(N)=O)[C@@H](C)O [L-6-C6-Leu] (Hexanoyl-LGLKLLWSAYKHRKTL-NH2)	1210	130	3.1	1.5	6.2	6.2	60			
